According to patent US20220105150A1, “AMPHIPATHIC ALPHA-HELICAL ANTIMICROBIAL PEPTIDES TREAT INFECTIONS BY GRAM-NEGATIVE PATHOGENS” (priority 2019, published 2022):

Assay: Peptide self-association by temperature profiling in RP-HPLC
Format: physicochemical
Conditions: for PA: self-association parameter relative to random coil control peptide RC; for Tp: temperature at which maximum retention time is observed, 5-77° C.
Procedure: Retention behavior from eight AMPs after normalization to their retention times at 5° C. over the temperature range 5° C. to 41° C. in 2° C. increments or 5° C. to 75° C. in 10° C. increments (methodology details provided in Examples). […] Peptide denotions in FIG. 5 have been abbreviated from those shown in Table 1G; for example, D87(Lys1-6 Arg-1) has been shortened to D87(6 Arg-1). RC is a random coil control peptide used for RP-HPLC temperature profiling. The peptide self-association parameter, PA, represents the maximum change in peptide retention time relative to the random coil peptide, RC (PA values shown in Table 6). […] T., et al. J. Med. Chem. 2019, 62:3354-66.
Hemoglobin release was determined spectrophotometrically at 570 nm.
Peptide self-association, the ability to dimerize/oligomerize in aqueous solution, is a very important parameter to optimize antimicrobial activity and toxicity as measured by hemolytic activity. We have proposed that the monomeric random-coil antimicrobial peptides in aqueous solution are best suited to pass through a polysaccharide capsule, the outer membrane lipopolysaccharide and the cell wall peptidoglycan layer of Gram-negative bacteria prior to penetration into the cytoplasmic membrane, where there is induction of α-helical structure and disruption of membrane structure, cell leakage and death of bacterial cells. In contrast, if the self-association ability of an AMP in aqueous medium is too strong, stable folded dimers/oligomers are formed through interaction of their non-polar faces which decreases the ability of the AMP to dissociate to monomer and the dimer/oligomer to effectively pass through the capsule and cell wall to reach the cytoplasmic membrane. The ability of an AMP to self-associate was determined by a RP-HPLC technique developed in our laboratory, referred to as temperature profiling over the temperature range 5° C. to 80° C. […] These eight AMPs are compared to a random-coil control peptide denoted RC. […] This linear decrease in retention behavior with increasing temperature represents the general effects of temperature due to greater solute diffusivity and enhanced mass transfer between the mobile and stationary phases. The difference in retention time between an amphipathic α-helical antimicrobial peptide and the RC control peptide is a measure of the ability of a peptide to associate. The association parameter, PA is large for AMPs without specificity determinants (Ala 13 and Ala 16) ranging from 12.5 to 28.0 min (Table 6) and is shown by a black arrow in FIG. 5. The association parameter, PA, is dramatically smaller for AMPs with specificity determinants (Lys 13 and Lys 16 in the center of the non-polar face) and range from 0 to 6 min (Table 6). […]

| Compound | PA [min] | Tp [°C] |
| --- | --- | --- |
| CC(=O)N[C@H](CCCCN)C(=O)N[C@H](CC(C)C)C(=O)N[C@H](CCN)C(=O)N[C@H](CO)C(=O)N[C@H](CC(C)C)C(=O)N[C@H](CC(C)C)C(=O)N[C@H](CCN)C(=O)N[C@@H](C(=O)N[C@H](CC(C)C)C(=O)N[C@H](CO)C(=O)N[C@H](CCN)C(=O)N[C@H](C)C(=O)N[C@H](C)C(=O)N[C@H](C)C(=O)N[C@H](C)C(=O)N[C@H](C)C(=O)N[C@H](CC(C)C)C(=O)N[C@H](CCN)C(=O)N[C@@H](C(=O)N[C@H](CC(C)C)C(=O)N[C@H](CC(C)C)C(=O)N[C@H](CCN)C(=O)N[C@H](C)C(=O)N[C@H](CC(C)C)C(=O)N[C@H](CO)C(=O)N[C@H](CCN)C(N)=O)[C@H](C)O)[C@H](C)O [D86(K13A/K16A)-(Lys^1-6Dab-1), Ac-KL(Dab)SLL(Dab)TLS(Dab)AAAAAL(Dab)TLL(Dab)ALS(Dab)-amide] | 12.5 | 31.0 |
| CC(=O)N[C@H](CCCCN)C(=O)N[C@H](CC(C)C)C(=O)N[C@H](CN)C(=O)N[C@H](CO)C(=O)N[C@H](CC(C)C)C(=O)N[C@H](CC(C)C)C(=O)N[C@H](CN)C(=O)N[C@@H](C(=O)N[C@H](CC(C)C)C(=O)N[C@H](CO)C(=O)N[C@H](CN)C(=O)N[C@H](C)C(=O)N[C@H](C)C(=O)N[C@H](C)C(=O)N[C@H](C)C(=O)N[C@H](C)C(=O)N[C@H](CC(C)C)C(=O)N[C@H](CN)C(=O)N[C@@H](C(=O)N[C@H](CC(C)C)C(=O)N[C@H](CC(C)C)C(=O)N[C@H](CN)C(=O)N[C@H](C)C(=O)N[C@H](CC(C)C)C(=O)N[C@H](CO)C(=O)N[C@H](CN)C(N)=O)[C@H](C)O)[C@H](C)O [D105(K13A/K16A)-(Lys^1-6Dap-1), Ac-KL(Dap)SLL(Dap)TLS(Dap)AAAAAL(Dap)TLL(Dap)ALS(Dap)-amide] | 18.0 | 39.0 |
